Measured values: ChEMBL document CHEMBL1131850, “The synthesis and anti-MRSA activity of amidinium-substituted 2-dibenzofuranylcarbapenems” (1999)
Values after ≈ are worked out from the molar mass of the structure shown.

Legend:
[1] = Compound was tested in vitro for its activity against Methicillin-Resistant Coagulase Negative Staphylococci(MRCNS 9); assay type: functional; conditions: Staphylococcus
[2] = system: Staphylococcus aureus; test: Compound was tested in vitro for its activity against methicillin-Resistant Staphylococcus Aureus(MRSA 12); assay type: functional
[3] = Compound was evaluated in vivo for percent binding to human albumin fraction V.; assay type: functional, organism-based
[4] = species: Mus musculus; test: Effective dose against Staphylococcus aureus MB2985 (methicillin-susceptible) in mouse systemic infection model; assay type: functional
[5] = In vivo inhibitory activity against Staphylococcus aureus MB2985 (methicillin-susceptible) in mouse systemic infection model; assay type: functional
[6] = species: Mus musculus; test: Plasma MIC against staphylococcus aureus infection in mice in presence of human albumin fraction V (21.5 mg/mL); assay type: functional, organism-based
[7] = system: Mus musculus; test: Compound was evaluated in vivo for percent binding to human albumin fraction V; assay type: functional, organism-based
[8] = system: Mus musculus; test: Compound was evaluated in vivo for plasma MIC in presence of human albumin fraction V (21.5 mg/mL); assay type: functional, organism-based

Row | Structure (SMILES) | MIC50 [1] [µg/mL] | MIC90 [1] [µg/mL] | MIC50 [2] [µg/mL] | MIC90 [2] [µg/mL] | PPB [3] [%] | ED50 [4] [mg/kg] | MIC [5] [µg/mL] | Plasma MIC [6] [µg/mL] | PPB [7] [%] | Plasma MIC [8] [µg/mL]
1 | CNC(=N)c1cc(C2=C(C(=O)O)N3C(=O)[C@H]([C@@H](C)O)[C@H]3C2)cc2c1oc1ccccc12 | 2 (≈ 4.77 µM) | 2 (≈ 4.77 µM) | 1 (≈ 2.38 µM) | 4 (≈ 9.54 µM) | – | – | – | – | – | –
2 | C[C@@H](O)[C@H]1C(=O)N2C(C(=O)O)=C(c3cc(C(=N)N)c4oc5ccccc5c4c3)C[C@H]12 | 1 (≈ 2.47 µM) | 2 (≈ 4.93 µM) | 1 (≈ 2.47 µM) | 2 (≈ 4.93 µM) | 71 | < 0.096 | 0.031 (≈ 0.0765 µM) | 0.031 | – | –
3 | C[C@@H](O)[C@H]1C(=O)N2C(C(=O)O)=C(c3cc(C4=NCCN4)c4oc5ccccc5c4c3)C[C@H]12 | 1 (≈ 2.32 µM) | 1 (≈ 2.32 µM) | 1 (≈ 2.32 µM) | 1 (≈ 2.32 µM) | 34 | 0.135 | ≤ 0.016 | 0.063 | – | –
4 | C[C@@H](O)[C@H]1C(=O)N2C(C(=O)O)=C(SCCNC=N)C[C@H]12 [IMIPENEM ANHYDROUS] | > 128 | > 128 | 32 (≈ 107 µM) | 128 (≈ 428 µM) | < 5 | 0.026 | 0.01 (≈ 0.0334 µM) | 0.014 | – | –
5 | C[C@@H](O)[C@H]1C(=O)N2C(C(=O)O)=C(c3cc(C4=NCCN4C)c4oc5ccccc5c4c3)C[C@H]12 | 2 (≈ 4.49 µM) | 4 (≈ 8.98 µM) | 2 (≈ 4.49 µM) | 4 (≈ 8.98 µM) | – | – | – | – | – | –
6 | CN[C@H](CC(C)C)C(=O)N[C@H]1C(=O)N[C@@H](CC(N)=O)C(=O)N[C@H]2C(=O)N[C@H]3C(=O)N[C@H](C(=O)N[C@H](C(=O)O)c4cc(O)cc(O)c4-c4cc3ccc4O)[C@H](O)c3ccc(c(Cl)c3)Oc3cc2cc(c3O[C@@H]2O[C@H](CO)[C@@H](O)[C@H](O)[C@H]2O[C@H]2C[C@](C)(N)[C@H](O)[C@H](C)O2)Oc2ccc(cc2Cl)[C@H]1O [VANCOMYCIN] | 4 (≈ 2.76 µM) | 8 (≈ 5.52 µM) | 1 (≈ 0.69 µM) | 2 (≈ 1.38 µM) | – | – | – | – | – | –
7 | C[C@@H](O)[C@H]1C(=O)N2C(C(=O)[O-])=C(c3cc(C4=[N+](C)CCN4C)c4oc5ccccc5c4c3)C[C@H]12 | 16 (≈ 34.8 µM) | 32 (≈ 69.6 µM) | 8 (≈ 17.4 µM) | 32 (≈ 69.6 µM) | – | – | – | – | – | –
8 | C[C@@H](O)[C@H]1C(=O)N2C(C(=O)O)=C(c3cc(C#N)c4oc5ccccc5c4c3)C[C@H]12 | 1 (≈ 2.57 µM) | 1 (≈ 2.57 µM) | 0.5 (≈ 1.29 µM) | 1 (≈ 2.57 µM) | – | 1.44 | < 0.016 | – | 98 | > 32
9 | C[C@@H](O)[C@H]1C(=O)N2C(C(=O)O)=C(c3cc(C(=N)N(C)C)c4oc5ccccc5c4c3)C[C@H]12 | 4 (≈ 9.23 µM) | 8 (≈ 18.5 µM) | 2 (≈ 4.61 µM) | 8 (≈ 18.5 µM) | – | – | – | – | – | –
10 | C[C@@H](O)[C@H]1C(=O)N2C(C(=O)O)=C(c3cc(C(N)=O)c4oc5ccccc5c4c3)C[C@H]12 | 2 (≈ 4.92 µM) | 2 (≈ 4.92 µM) | 0.5 (≈ 1.23 µM) | 1 (≈ 2.46 µM) | 95 | 0.55 | 0.031 (≈ 0.0763 µM) | – | – | 1
11 | C[C@@H](O)[C@H]1C(=O)N2C(C(=O)O)=C(c3ccc4oc5ccccc5c4c3)C[C@H]12 | 4 (≈ 11 µM) | 8 (≈ 22 µM) | 2 (≈ 5.5 µM) | 4 (≈ 11 µM) | – | – | – | – | – | –
12 | C[C@@H](O)[C@H]1C(=O)N2C(C(=O)[O-])=C(c3cc(-c4n(C)cc[n+]4C)c4oc5ccccc5c4c3)C[C@H]12 | 8 (≈ 17.5 µM) | 16 (≈ 35 µM) | 4 (≈ 8.74 µM) | 8 (≈ 17.5 µM) | – | – | – | – | – | –
13 | C[C@@H](O)[C@H]1C(=O)N2C(C(=O)O)=C(c3cc(C4=NCCCN4)c4oc5ccccc5c4c3)C[C@H]12 | 2 (≈ 4.49 µM) | 4 (≈ 8.98 µM) | 1 (≈ 2.24 µM) | 2 (≈ 4.49 µM) | – | – | – | – | – | –
